Reference: patent publication US5707798A, “Identification of ligands by selective amplification of cells transfected with receptors” (priority 1994, dated 1998)
Read-outs that look alike come from different tables or passages of the source. Ends that are not written are not given here.

Tests used:
NIH 3T3 cells = test: Amplification response in the absence of the indicated target receptor; type: cell-based, mouse; details: absence of the ligand's target receptor
Procedure: FIG. 16 illustrates the maximal ligand-induced responses of the indicated receptors, as assayed using cotransfected cultures using a Multiple Receptor Format similar to that described in FIG. 11. […] Cells were incubated in wells of a 96 well plate for 4 days with each ligand. Maximal responses were calculated by fitting the data to a model of a single mass-action site.

m5 muscarinic receptor [1] = target: T1, m5 muscarinic receptor (Homo sapiens, UniProt P08912); type: cell-based; details: read-out: negative log Ki (converted)
T1 construct: expressed in transfected cells; host or cells: NIH 3T3 (mouse fibroblasts)
T1 sequence (P08912 1-532): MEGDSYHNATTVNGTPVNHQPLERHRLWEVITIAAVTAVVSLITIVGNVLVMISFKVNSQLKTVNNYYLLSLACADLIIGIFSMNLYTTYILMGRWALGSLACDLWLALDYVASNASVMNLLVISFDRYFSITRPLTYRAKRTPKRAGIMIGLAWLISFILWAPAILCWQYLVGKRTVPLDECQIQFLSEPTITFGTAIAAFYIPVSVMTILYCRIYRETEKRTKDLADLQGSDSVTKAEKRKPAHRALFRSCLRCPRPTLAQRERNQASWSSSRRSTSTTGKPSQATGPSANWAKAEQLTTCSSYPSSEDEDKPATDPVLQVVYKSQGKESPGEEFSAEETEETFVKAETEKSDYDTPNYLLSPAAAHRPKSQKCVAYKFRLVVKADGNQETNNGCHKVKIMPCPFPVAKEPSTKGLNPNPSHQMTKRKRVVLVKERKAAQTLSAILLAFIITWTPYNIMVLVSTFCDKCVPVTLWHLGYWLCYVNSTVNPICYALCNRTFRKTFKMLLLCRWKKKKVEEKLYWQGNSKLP

m1 muscarinic receptor [2] = target: T2, m1 muscarinic receptor (Homo sapiens, UniProt P11229); test: cell-based
T2 sequence (P11229 1-460): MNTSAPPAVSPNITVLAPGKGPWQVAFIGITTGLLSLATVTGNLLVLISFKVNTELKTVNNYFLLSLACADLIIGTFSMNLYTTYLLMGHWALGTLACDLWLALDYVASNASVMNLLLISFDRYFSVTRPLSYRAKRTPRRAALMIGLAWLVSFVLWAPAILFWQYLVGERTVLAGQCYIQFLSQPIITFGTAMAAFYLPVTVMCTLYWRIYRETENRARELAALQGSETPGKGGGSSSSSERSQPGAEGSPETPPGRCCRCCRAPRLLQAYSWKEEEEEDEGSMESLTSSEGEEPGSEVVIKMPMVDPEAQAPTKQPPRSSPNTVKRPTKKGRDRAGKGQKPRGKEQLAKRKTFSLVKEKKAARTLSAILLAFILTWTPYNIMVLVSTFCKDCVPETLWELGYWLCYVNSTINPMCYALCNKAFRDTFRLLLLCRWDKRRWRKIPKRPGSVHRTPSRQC

[3] = target: T3, alpha 2 C10 adrenergic receptor (Homo sapiens, UniProt P08913); type: cell-based; details: α2-C10, Table 3
T3 construct: expressed in transfected cells; host or cells: NIH 3T3 (mouse fibroblasts)
T3 sequence (P08913 1-465): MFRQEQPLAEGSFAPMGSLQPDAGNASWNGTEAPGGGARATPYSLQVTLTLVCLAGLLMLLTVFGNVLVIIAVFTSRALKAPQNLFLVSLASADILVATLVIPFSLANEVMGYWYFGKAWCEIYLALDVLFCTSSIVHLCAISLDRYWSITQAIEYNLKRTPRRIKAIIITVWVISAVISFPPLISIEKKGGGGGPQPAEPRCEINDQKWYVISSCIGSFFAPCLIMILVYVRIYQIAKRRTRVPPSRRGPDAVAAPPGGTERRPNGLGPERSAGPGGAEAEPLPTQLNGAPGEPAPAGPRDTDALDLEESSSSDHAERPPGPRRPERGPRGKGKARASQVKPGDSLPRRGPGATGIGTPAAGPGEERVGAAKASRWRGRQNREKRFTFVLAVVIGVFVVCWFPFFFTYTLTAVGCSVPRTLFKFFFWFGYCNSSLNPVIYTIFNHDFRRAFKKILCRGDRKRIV

[4] = target: T4, alpha 2 C4 adrenergic receptor (Homo sapiens, UniProt P18825); type: cell-based; details: α2-C4, Table 3; for Max Response: relative to other ligands at the receptor
T4 construct: expressed in transfected cells; host or cells: NIH 3T3 (mouse fibroblasts)
T4 sequence (P18825 1-462): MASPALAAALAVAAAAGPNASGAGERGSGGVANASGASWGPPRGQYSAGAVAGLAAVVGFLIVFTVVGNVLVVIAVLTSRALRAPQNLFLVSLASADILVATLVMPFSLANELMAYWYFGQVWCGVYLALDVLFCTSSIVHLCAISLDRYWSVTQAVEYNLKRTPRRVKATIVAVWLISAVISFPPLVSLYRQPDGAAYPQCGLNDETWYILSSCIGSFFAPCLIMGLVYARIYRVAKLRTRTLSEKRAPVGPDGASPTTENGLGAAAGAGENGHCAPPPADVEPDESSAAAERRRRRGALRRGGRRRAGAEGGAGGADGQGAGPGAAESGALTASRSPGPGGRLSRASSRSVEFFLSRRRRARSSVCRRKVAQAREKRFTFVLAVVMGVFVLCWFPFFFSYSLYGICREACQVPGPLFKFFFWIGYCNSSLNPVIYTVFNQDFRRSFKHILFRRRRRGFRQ

[5] = target: T5, alpha 2 C2 adrenergic receptor (Homo sapiens, UniProt P18089); type: cell-based
T5 sequence (P18089 1-450): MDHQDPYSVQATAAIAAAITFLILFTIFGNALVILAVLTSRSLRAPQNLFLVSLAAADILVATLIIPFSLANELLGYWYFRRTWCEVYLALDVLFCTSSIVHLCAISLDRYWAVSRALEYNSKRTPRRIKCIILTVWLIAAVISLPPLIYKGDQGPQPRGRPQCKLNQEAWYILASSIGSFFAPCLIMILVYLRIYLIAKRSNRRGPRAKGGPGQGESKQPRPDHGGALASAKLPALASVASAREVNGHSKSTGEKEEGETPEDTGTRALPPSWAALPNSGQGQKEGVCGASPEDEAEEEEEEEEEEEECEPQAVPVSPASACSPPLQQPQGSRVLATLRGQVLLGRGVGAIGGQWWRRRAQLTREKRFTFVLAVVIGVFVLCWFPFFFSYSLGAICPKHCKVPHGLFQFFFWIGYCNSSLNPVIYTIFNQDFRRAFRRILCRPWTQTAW

m2 muscarinic receptor = target: T6, m2 muscarinic receptor (Homo sapiens, UniProt P08172); test: cell-based; type: cell-based
T6 construct: expressed in transfected cells; host or cells: NIH 3T3 (mouse fibroblasts)
T6 sequence (P08172 1-466): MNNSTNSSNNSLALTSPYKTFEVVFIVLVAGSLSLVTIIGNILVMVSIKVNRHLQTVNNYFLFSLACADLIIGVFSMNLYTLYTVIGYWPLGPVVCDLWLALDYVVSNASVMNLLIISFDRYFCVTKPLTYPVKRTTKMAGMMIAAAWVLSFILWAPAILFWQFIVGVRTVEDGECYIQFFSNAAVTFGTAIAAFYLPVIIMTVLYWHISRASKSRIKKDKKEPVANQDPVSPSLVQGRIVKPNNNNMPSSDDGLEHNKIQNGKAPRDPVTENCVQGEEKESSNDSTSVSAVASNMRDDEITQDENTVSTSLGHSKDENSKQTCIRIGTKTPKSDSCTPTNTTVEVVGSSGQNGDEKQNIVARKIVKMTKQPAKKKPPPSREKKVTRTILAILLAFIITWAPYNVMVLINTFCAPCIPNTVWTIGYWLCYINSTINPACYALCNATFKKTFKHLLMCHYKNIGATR

m1 muscarinic receptor [6] = target: T2, m1 muscarinic receptor; test: cell-based; type: cell-based; set-up: expressed in transfected cells; host or cells: NIH 3T3 (mouse fibroblasts); details: for Emax: read-out: % Max
[7] = tested on: Glutamate metabatropic receptor; type: cell-based
m3 muscarinic receptor [8] = target: T7, m3 muscarinic receptor (Homo sapiens, UniProt P20309); test: cell-based
T7 sequence (P20309 whole entry): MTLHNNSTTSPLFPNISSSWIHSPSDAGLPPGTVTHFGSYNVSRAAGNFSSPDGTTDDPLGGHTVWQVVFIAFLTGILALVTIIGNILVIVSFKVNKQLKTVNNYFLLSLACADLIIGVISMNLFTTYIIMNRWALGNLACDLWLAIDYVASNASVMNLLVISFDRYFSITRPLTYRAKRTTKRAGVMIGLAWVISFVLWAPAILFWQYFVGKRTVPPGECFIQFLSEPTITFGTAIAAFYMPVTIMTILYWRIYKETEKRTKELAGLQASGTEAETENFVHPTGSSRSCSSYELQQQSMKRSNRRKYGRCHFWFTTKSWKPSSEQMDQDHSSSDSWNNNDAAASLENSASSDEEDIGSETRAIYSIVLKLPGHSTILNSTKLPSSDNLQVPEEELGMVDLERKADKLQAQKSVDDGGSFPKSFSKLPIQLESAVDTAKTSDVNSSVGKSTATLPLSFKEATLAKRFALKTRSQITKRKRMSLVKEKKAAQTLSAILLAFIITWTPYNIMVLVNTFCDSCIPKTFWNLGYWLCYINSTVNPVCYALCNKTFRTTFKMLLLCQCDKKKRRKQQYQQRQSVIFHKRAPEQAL

m4 muscarinic receptor [9] = target: T8, m4 muscarinic receptor (Homo sapiens, UniProt P08173); test: cell-based
T8 sequence (P08173 1-479): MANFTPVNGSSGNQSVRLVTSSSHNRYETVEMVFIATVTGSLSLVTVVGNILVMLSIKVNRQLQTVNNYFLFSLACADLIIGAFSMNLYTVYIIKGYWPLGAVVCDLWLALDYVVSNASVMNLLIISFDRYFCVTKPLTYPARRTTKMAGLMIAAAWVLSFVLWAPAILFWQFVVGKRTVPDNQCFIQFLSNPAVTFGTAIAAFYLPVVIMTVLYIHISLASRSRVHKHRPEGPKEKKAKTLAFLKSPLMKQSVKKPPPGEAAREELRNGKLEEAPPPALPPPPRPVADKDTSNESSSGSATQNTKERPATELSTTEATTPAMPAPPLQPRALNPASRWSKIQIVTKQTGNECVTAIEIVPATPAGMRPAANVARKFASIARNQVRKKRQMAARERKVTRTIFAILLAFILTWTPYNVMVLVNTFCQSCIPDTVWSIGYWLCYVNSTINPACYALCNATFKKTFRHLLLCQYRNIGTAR

m5 muscarinic receptor [10] = target: T1, m5 muscarinic receptor; type: cell-based; details: for Emax: read-out: % Max
m4 muscarinic receptor [11] = target: T8, m4 muscarinic receptor; test: cell-based; details: read-out: % Max
m3 muscarinic receptor [12] = target: T7, m3 muscarinic receptor; test: cell-based; set-up: expressed in transfected cells; host or cells: NIH 3T3 (mouse fibroblasts); details: for Emax: read-out: % Max
m4 muscarinic receptor [13] = target: T8, m4 muscarinic receptor
Insulin receptor = type: cell-based
[14] = tested on: trk A receptors (NGF receptor); details: only when transfected with trk A; cited from earlier work
trk C receptor = details: data not shown

O=C(O)CCC/C=C\C[C@@H]1[C@@H](/C=C/[C@@H](O)COc2cccc(C(F)(F)F)c2)[C@H](O)C[C@@H]1O (racemic) [Fluprostenol]
induction of responses (NIH 3T3 cells): unable to induce responses

C[N+]1(C)CCC(OC(=O)C(c2ccccc2)c2ccccc2)CC1 [4-DAMP]
Ki (m5 muscarinic receptor [1]): 1 nM | Ki (m1 muscarinic receptor [2]): 2.51 nM

C=CCN1CCc2nc(N)sc2CC1 [BHT 920]
EC50 [3]: > 10000 nM | EC50 [4]: > 10000 nM

CCN1CCc2nc(N)oc2CC1 [BHT 933]
EC50 [3]: > 10000 nM | EC50 ([5]; α2-C2, Table 3): > 10000 nM

Cc1cccc([C@H](C)c2cnc[nH]2)c1C [Dexmedetomidine]
EC50 [5]: 2 nM

CNC[C@H](O)c1ccc(O)c(O)c1 [Epinephrine]
Max Response [4]: +

C[N+](C)(C)CC#CCOC(=O)Nc1cccc(Cl)c1 [McN A-434]
EC50 (m2 muscarinic receptor; m2 + Gq-i5, Table 1A, read-out: EC50): 1500 ± 600 nM | % Max (m2 muscarinic receptor; nih 3t3 cells): 108 ± 7% | EC50 (m1 muscarinic receptor [6]; m1, Table 1A, read-out: EC50): 1100 ± 200 nM | % Max (m1 muscarinic receptor [6]; nih 3t3 cells): 43 ± 2%

COc1nc(C)nc(Cl)c1N=C1NCCN1 [Moxonidine]
Max Response [4]: +

Cc1cc(C(C)(C)C)c(O)c(C)c1CC1=NCCN1 [Oxymetazoline]
Max Response [4]: +

N[C@@H](Cn1oc(=O)[nH]c1=O)C(=O)O [Quisqualate]
EC50 ([7]; Table 2, read-out: Ligand EC50): 2400 nM | Rmax ([7]; relative to other clones): +

C1COC(NC(C2CC2)C2CC2)=N1 [Rilmenidine]
Max Response [4]: +

Brc1c(NC2=NCCN2)ccc2nccnc12 [UK 14,304]
Max Response [4]: +

COc1ccccc1CNCCCCCCNCCCCCCCCNCCCCCCNCc1ccccc1OC [methocrtramine]
Ki (m5 muscarinic receptor [1]): > 1000 nM | Ki (m1 muscarinic receptor [2]): 501 nM | Ki (m3 muscarinic receptor [8]): > 1000 nM | Ki (m4 muscarinic receptor [9]): 398 nM

C[C@@H]1O[C@H](C[N+](C)(C)C)C[C@H]1O [muscarine]
Emax (m5 muscarinic receptor [10]): 86% | Emax (m4 muscarinic receptor [11]): 69 ± 2% | Emax (m1 muscarinic receptor [6]): 84 ± 4% | Emax (m3 muscarinic receptor [12]): 84 ± 6%

O=C1CCCN1CC#CCN1CCCC1 [oxotremorine]
Emax (m2 muscarinic receptor; read-out: % Max): 100 ± 5% | EC50 (m2 muscarinic receptor; read-out: EC50): 19 ± 10 nM | EC50 (m2 muscarinic receptor; read-out: Ligand EC50): 19 ± 10 nM | EC50 (m5 muscarinic receptor [10]; m5, Table 1A, read-out: EC50): 55 ± 1 nM | EC50 (m5 muscarinic receptor [10]; m5, Table 2, read-out: Ligand EC50): 55 ± 1 nM | Emax (m5 muscarinic receptor [10]): 74 ± 2% | EC50 (m4 muscarinic receptor [13]): 33 ± 14 nM | EC50 (m4 muscarinic receptor [13]; read-out: Ligand EC50): 33 ± 14 nM | Emax (m4 muscarinic receptor [11]): 102 ± 3% | Emax (m1 muscarinic receptor [6]): 75 ± 10% | EC50 (m1 muscarinic receptor [6]; read-out: EC50): 390 ± 130 nM | EC50 (m1 muscarinic receptor [6]; read-out: Ligand EC50): 390 ± 130 nM | Emax (m3 muscarinic receptor [12]): 66 ± 5% | EC50 (m3 muscarinic receptor [12]; read-out: EC50): 210 ± 60 nM | EC50 (m3 muscarinic receptor [12]; read-out: Ligand EC50): 210 ± 60 nM

Clc1cc(I)cc(Cl)c1NC1=NCCN1 [p-I-Clonidine]
Max Response [5]: +

Nc1cc(Cl)c(NC2=NCCN2)c(Cl)c1 [p-NH2-Clonidine]
Max Response ([5]; α2-C2, Table 3, relative to other ligands at the receptor): +

CNC[C@H](O)c1cccc(O)c1 [phenylephrine]
induction of responses (NIH 3T3 cells): unable to induce responses

Insulin
EC50 (Insulin receptor; Table 2, read-out: Ligand EC50): 0.08 ± 0.08 nM | Rmax (Insulin receptor; relative to other clones): +

Nerve growth factor [NGF]
growth stimulation [14]: stimulates growth | induction of amplification responses (trk C receptor): not able to induce amplification responses

endothelin-3 [ET-3]
induction of responses (NIH 3T3 cells): unable to induce responses

substance P (RPKPQQFFGLM; ends and bridges not checked; UniProt P20366 58-68, looked up)
induction of responses (NIH 3T3 cells): unable to induce responses
